# Laboratory results published in publication PMC10907560, “Significant reduction of activity retention in the kidneys via optimized linker sequences in radiohybrid-based minigastrin analogs” (EJNMMI Research, 2024).
# Values joined by “and” are separate entries in the source; they are usually repeats but may differ in a detail not shown here. Identical values can stand only once. Numbered stars: 1 amine (or outer) side, 2 acyl side, 3 side chain; on linkers, the order of the positions; unused ones are H or OH. Square brackets hold non-standard residues; d marks the D form. Peptide text beside a SMILES is read from it. * marks the point of attachment. Benzoyl(4-SiFtBu2) = CC(C)(C)[Si](F)(c1ccc(C(=O)*)cc1)C(C)(C)C; DOTA = O=C(O)CN1CCN(CC(=O)O)CCN(CC(=O)*)CCN(CC(=O)O)CC1; d(γGlu) = O=C(O)[C@@H](CCC(=O)[*:2])N[*:1]; 1Nal = N[C@@H](Cc1cccc2ccccc12)C(=O)O; PEG5 = NCCOCCOCCOCCOCCOCCC(=O)O; NMeNle = CCCC[C@H](NC)C(=O)O; PEG4 = NCCOCCOCCOCCOCCC(=O)O; dDap = NC[C@@H](N)C(=O)O
# Key:
# [1] = target: T1, Human serum albumin (HSA) (Homo sapiens, UniProt P02768); test: Human serum albumin binding via high performance affinity chromatography (HPAC); format: in vitro ADME; settings: Chiralpak HSA column
# T1 construct: purchased Daicel, Tokyo, Japan H13H-2433
# T1 sequence (P02768 25-609): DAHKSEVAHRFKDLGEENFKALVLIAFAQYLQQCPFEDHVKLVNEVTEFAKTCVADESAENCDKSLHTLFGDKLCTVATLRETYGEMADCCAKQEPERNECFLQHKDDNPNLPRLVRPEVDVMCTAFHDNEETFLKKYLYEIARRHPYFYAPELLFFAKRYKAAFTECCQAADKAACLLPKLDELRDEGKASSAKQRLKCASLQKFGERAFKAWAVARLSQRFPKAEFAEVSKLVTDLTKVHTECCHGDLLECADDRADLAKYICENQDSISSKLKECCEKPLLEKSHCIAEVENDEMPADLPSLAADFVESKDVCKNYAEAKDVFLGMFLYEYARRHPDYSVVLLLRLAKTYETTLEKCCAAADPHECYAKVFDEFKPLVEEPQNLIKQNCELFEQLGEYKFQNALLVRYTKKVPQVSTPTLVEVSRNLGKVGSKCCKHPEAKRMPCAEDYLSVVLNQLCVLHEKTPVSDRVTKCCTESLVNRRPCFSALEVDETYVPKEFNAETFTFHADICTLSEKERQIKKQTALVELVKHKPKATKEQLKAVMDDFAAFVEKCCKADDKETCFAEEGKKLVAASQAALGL
# Method: Human serum albumin (HSA) binding was determined via high performance affinity chromatography (HPAC), according to previously published protocols. Human serum albumin interaction was calculated according to the retention time (n = 1) of our compounds on a Chiralpak HSA column in dependence of nine reference compounds with known HSA interaction.
# Human serum albumin binding was determined via high performance affinity chromatography. Therefore, a Chiralpak HSA column (50 × 3 mm, 5 µm, H13H-2433, Daicel, Tokyo, Japan) was used at a constant flow rate of 0.5 ml/min at room temperature. Mobile phase A consisted of a freshly prepared aqueous solution of NH4OAc (pH = 6.9, 50 mM) and mobile phase B of isopropanol. Calibration of the column was performed daily prior to experiments, by determining the retention times of nine reference substances displaying a HSA binding from 13 to 99%. HPLC gradient for all compounds tested was 100% A (0 to 3 min), followed by 80% A (3 to 40 min). All substances tested, were dissolved in a mixture of A/B (0.5 mg/mL, 1:1, v/v). OriginPro 2016G software (Northampton, United States) was used for non-linear regression and data evaluation.
# [2] = tested on: AR42J tumor-bearing CB17-SCID mice; settings: 24 h p.i.; cited from earlier work
# [3] = Lipophilicity, n-octanol/PBS distribution coefficient logD7.4; format: physicochemical; settings: 177Lu-labeled peptide; n-octanol/PBS (1/1), n ≥ 5
# Method: For determination of lipophilicity, the respective ^177Lu-Labeled peptide precursor (~ 1 MBq, 10 µL in 0.04 M HCl) was added to a solution of n-octanol/PBS (1/1, v/v, 1 mL) and vigourously mixed for 3 min at room temperature (n ≥ 5). Afterwards both phases were seperated using a Biofuge 15 centrifuge (Heraus Sepatech GmbH, Osterode, Germany) at 9,000 rpm for 5 min. 200 µL aliquots of both layers were collected separately, measured in a γ-counter (Perkin Elmer, Waltham, MA, USA) and the logD7.4 value was obtained.
Compound,activity levels in the tumor [2] [%ID/g],tumor-to-kidney ratio [2],HSA binding ([1]; n = 1) [%],logD [3],kidney retention [2] [%ID/g],further results
"CCCC[C@H](NC(=O)[C@H](Cc1c[nH]c2ccccc12)NC(=O)CNC(=O)[C@H](Cc1ccc(O)cc1)NC(=O)[C@H](C)NC(=O)CC[C@@H](NC(=O)CC[C@@H](NC(=O)CC[C@@H](NC(=O)CC[C@@H](NC(=O)CC[C@@H](NC(=O)CC[C@@H](NC(=O)CC[C@@H](NC(=O)CC[C@@H](NC(=O)[C@@H](CNC(=O)c1ccc([Si](F)(C(C)(C)C)C(C)(C)C)cc1)NC(=O)CN1CCN(CC(=O)O)CCN(CC(=O)O)CCN(CC(=O)O)CC1)C(=O)O)C(=O)O)C(=O)O)C(=O)O)C(=O)O)C(=O)O)C(=O)O)C(=O)O)C(=O)N[C@@H](CC(=O)O)C(=O)N[C@@H](Cc1ccccc1)C(N)=O [[^177Lu]Lu-DOTA-rhCCK-18, DOTA-D-Dap(p-SiFA)-(D-γ-Glu)8-Ala-Tyr-Gly-Trp-Nle-Asp-Phe-NH2, metal not drawn]",25.4 ± 4.7,0.19 ± 0.01,–,–,–,"HSA binding ([1]; n = 1, listed as [^natLu]Lu-DOTA-rhCCK-18): 87.1% and 87%; activity levels in the bone [2]: 0.20 ± 0.03 %ID/g; activity levels in the liver [2]: 0.22 ± 0.01 %ID/g; activity levels in the spleen [2]: 0.34 ± 0.09 %ID/g; activity levels in the stomach [2]: 4.3 ± 1.1 %ID/g; activity uptake in the kidneys [2]: 134 ± 18 %ID/g"
"CCCC[C@@H](C(=O)N[C@@H](CC(=O)O)C(=O)N[C@@H](Cc1cccc2ccccc12)C(N)=O)N(C)C(=O)[C@H](Cc1c[nH]c2ccccc12)NC(=O)CCOCCOCCOCCOCCNC(=O)CC[C@@H](NC(=O)CCOCCOCCOCCOCCOCCNC(=O)[C@@H](CNC(=O)c1ccc([Si](F)(C(C)(C)C)C(C)(C)C)cc1)NC(=O)CN1CCN(CC(=O)O)CCN(CC(=O)O)CCN(CC(=O)O)CC1)C(=O)O [[^nat/177Lu]Lu-DOTA-rhCCK-67, DOTA-D-Dap(p-SiFA)-(PEG)4-B, metal not drawn] ({DOTA}-[dDap](Benzoyl(4-SiFtBu2))[PEG5][d(γGlu)][PEG4]W[NMeNle]D[1Nal]-NH2)",–,–,92.9,-1.05 ± 0.09,–,–
"CCCC[C@@H](C(=O)N[C@@H](CC(=O)O)C(=O)N[C@@H](Cc1cccc2ccccc12)C(N)=O)N(C)C(=O)[C@H](Cc1c[nH]c2ccccc12)NC(=O)CCOCCOCCOCCOCCNC(=O)CC[C@@H](NC(=O)CCOCCOCCOCCOCCOCCNC(=O)CC[C@@H](NC(=O)[C@@H](CNC(=O)c1ccc([Si](F)(C(C)(C)C)C(C)(C)C)cc1)NC(=O)CN1CCN(CC(=O)O)CCN(CC(=O)O)CCN(CC(=O)O)CC1)C(=O)O)C(=O)O [[^nat/177Lu]Lu-DOTA-rhCCK-68, DOTA-D-Dap(p-SiFA)-D-γ-Glu-(PEG)4-B, metal not drawn]",–,–,91.2,-1.65 ± 0.09,–,–
"CCCC[C@@H](C(=O)N[C@@H](CC(=O)O)C(=O)N[C@@H](Cc1cccc2ccccc12)C(N)=O)N(C)C(=O)[C@H](Cc1c[nH]c2ccccc12)NC(=O)CCOCCOCCOCCOCCNC(=O)CC[C@@H](NC(=O)CCOCCOCCOCCOCCOCCOCCOCCOCCNC(=O)CC[C@@H](NC(=O)[C@@H](CNC(=O)C[N+](C)(C)Cc1ccc([Si](F)(C(C)(C)C)C(C)(C)C)cc1)NC(=O)CN1CCN(CC(=O)O)CCN(CC(=O)O)CCN(CC(=O)O)CC1)C(=O)O)C(=O)O [[^nat/177Lu]Lu-DOTA-rhCCK-71, DOTA-D-Dap(SiFAlin)-D-γ-Glu-(PEG)7-B, metal not drawn]",–,–,89.1,-1.63 ± 0.06,–,–
DOTA-(D-Glu)6-Ala-Tyr-Gly-Trp-Nle-Asp-Phe-NH2 [[^177Lu]Lu-DOTA-PP-F11N],1.9 ± 0.8,–,–,–,3.1 ± 0.6,–
DOTA-D-Glu-Ala-Tyr-Gly-Trp-(N-Me)Nle-Asp-1-Nal-NH2 [[^177Lu]Lu-DOTA-MGS5],11.0 ± 1.2,9.4 ± 3.3,–,–,1.3 ± 0.4,tumor-to-stomach ratio [2]: 4.4 ± 0.7
